Data set [1] has as its system RAW 264.7 murine monocyte/macrophage line. The experiment in a line: Anti-inflammatory activity by inhibition of macrophage chemiluminescence (respiratory burst, PMA-stimulated, luminol). The format is cell-based. The following applies: for minimal effective concentration: PMA-stimulated RAW 264.7, read-out: concentration at which marked inhibition of luminescence is seen. The text has this: Assay for Anti-inflammatory Activity by Inhibition of Macrophage Chemiluminescence
The RAW 264.7 cell line (available from the ATCC under accession no. TIB 71) is a murine monocyte/macrophage line the cells of which show many of the differentiative functions of a macrophage. Like macrophages, the cells are capable of phagocytosis and undergo an oxidative burst (increased oxygen consumption) and production of oxygen radicals (e.g., superoxide) in response to appropriate signals. Agents that inhibit the activation of these cells in vitro, so as to inhibit the respiratory burst and corresponding production of oxygen radicals associated with the activation, are therefore inhibitors of macrophage activation and critical steps in inflammatory processes. These agents are likely, then to be anti-inflammatories.
The respiratory burst and corresponding production of oxygen radicals that accompany macrophage activation can be measured in a variety of ways, including chemiluminescence based on the reaction of the oxygen radicals with luminol added to the culture medium (see M. A. Trush et al, 1978, "The Generation of Chemiluminescence by Phagocytic Cells." Methods in Enzymology 57: 462-494). Indeed, chemiluminescence generated from luminol in the culture medium of macrophage cell lines is recognized in the art as a marker of macrophage activation.
Cell line: RAW 264.7 (ATCC TIB 71);
1. Culture medium: DMEM with 5% FBS (attachment dependent);
2. Standard protocol for culturing cell lines: in T-75 or T-150 flasks; 37° C.; 95% air, 5% CO2; 100% humidity;
3. Cell lines are passaged when approximately 80% confluent; with trypsin (1 mg/mL) and EDTA ([…] in Ca-Mg free Hank's balanced salt solution); at a 1:4 to 1:5 split;
4. Trypsinize the cells and count with a hemacytometer;
5. Adjust concentration of cells to approximately 1,000,000 cells per mL;
6. Suspend cells in DMEM lacking phenol red and without FBS;
7. Pipette 1 mL into a standard luminometer cuvet (12×75), commercially obtainable from Analytical Luminescence Laboratories, San Diego;
8. Add luminol to final concentration of 1 μM;
9. Add test compound (0, 1, 3, 10, 30 μM);
10. Add 100 nanograms of phorbol myristate acetate (PMA);
11. Wait 1 minute and read photo counts (i.e., luminescence) on a Monolight 2010 luminometer available from Analytical Luminescence Laboratories;
The results are represented in Table 2, which illustrates the marked inhibition of luminescence by the compounds tested (CPR 2003 and CPR 2004) at concentrations above 3 μM. Results are calculated as percent of control (no test compound present).

A short description of data set [2]: Liposome formation in PBS. The format is physicochemical. The following applies: sonication. The text has this:
Solutions of the subject compounds of Formula (I) in PBS (phisphate-buffered saline) have characteristics indicative of the presence of liposomes. These preparations require sonication in order to form uniform, cloudy suspensions. The requirement for sonication and the cloudy appearance of the suspensions are some known properties of liposomal preparations. Additionally, foam generation, which is associated with micellar suspensions, is not a property of these preparations.

Data set [3] has as its system human tumor cell line HL-60. Put plainly: HL-60 cell viability (trypan blue exclusion). The format is cell-based. Conditions: for viability at 10 µM / viability at 30 µM / viability at 100 µM: Homo sapiens; for cell viability (in words): HL-60, compared to retinoic acid. As to the method:
(§1) Use of the HL-60 cell line in evaluating the anti-tumor activity of retinoids is reported in the literature, for example, see Janick-Buckner, D. et al.,FASEB J. 5:320-325; 1991
(§2) 1. Human tumor cell line HL-60 (ATCC CCL 240), obtainable from the American Type Culture Collection (ATCC), a promyelocytic leukemia cell line.
(§3) 2. Culture media: Roswell Park Memorial Institute-1640 (RPMI-1640) plus 10% Fetal Bovine Serum (FBS).
(§4) 3. Standard protocol for culturing cell lines: in T-75 or T-150 flasks; 37° C.; 95% air, 5% CO2; 100% humidity.
(§5) a. The HL 60 cell line is passaged by removing approximately 75% of the media and cell mixture and adding an equal amount of fresh media once or twice a week.
b. All procedures are performed aseptically in a Class II biological safety cabinet using standard BL-2 containment procedures. At approximately monthly intervals, fresh cells are thawed from liquid nitrogen storage in order to prevent genetic drift in stock cell lines.
a. after cell passage, count cells with a hemacytometer;
b. adjust concentration to approximately 20,000 cells per 100 μL;
C. pipette 100 μL cell suspension per well of a standard 96-well microtiter plate;
d. add test compound dissolved in phosphate buffered saline (PBS), or in DMSO for the comparative compound, retinoic acid, for final concentration levels ranging from 0 to 100 μM;
e. adjust volume to 200 μL/well by adding RPMI-1640;; and
f. incubate 72 hours under standard culture conditions and determine end points.
6. End Point 2: Cell Viability:
a. Add 100 μL/well of 0.5% (w/v) trypan blue in PBS.
b. Using a hemacytometer, determine the percent viable cells by calculating the ratio of cells that exclude trypan blue to the total number of cells.

Data set [4] deals with human tumor cell line HL-60. Put plainly: HL-60 cell proliferation (in vitro HL-60 cell inhibition assay, SRB). Conditions: particularly against leukemia. The format is cell-based. Here is the method: as §1, §2, §3, §4, §5
b. […]
j. Read absorbance at 562 nm using a standard 96-well microtiter plate reader. Absorbance readings are linear with dye concentrations below 1.8 absorbance units. To reduce absorbance, decrease wavelength at which measurements are taken;
single point reading; the higher the absorbance, the higher the cell number; […]
initial control cell number (ICCN)-no test compound present in culture medium, end point determined at the time of treatment;
final control cell number (FCCN)-no test compound present in culture medium, end point determined at 72 hours after treatment;
final cell number (FCN)-test compound present in culture medium, end point determined at 72 hours after treatment; […]

The subject of data set [5] is PAM-212 murine keratinocyte cell line. Put plainly: Anti-psoriatic activity by inhibition of keratinocyte proliferation (PAM-212, SRB). The data set is classed as cell-based, murine (BALB/c mice). The following applies: for minimal effective concentration: Mus musculus, PAM212, PAM-212, 72 hours, FIG. 2, read-out: concentration at which marked inhibition of cell growth is seen; for inhibition of keratinocyte proliferation (in words): in vitro. Here is the method: Assay for Anti-psoriatic Activity by Inhibition of Keratinocyte Proliferation:
1. Cell line: PAM-212 murine keratinocyte cell line isolated and cultivated from newborn BALB/c mice (see S. H. Yuspa et al., Cancer Research, 40, 4694-4703, December, 1980) that appears to retain many characteristics of normal keratinocytes.
2. Culture medium: 1:1 DMEM and Ham's F-12 with 10% FBS.
3. Standard protocol for culturing cell lines; in T-75 or T-150 flasks; 37° C.; 95% air, 5% CO2; 100% humidity. Cell line PAM-212 is passaged when approximately 80% confluent; with trypsin (1 mg/mL) and EDTA (1 mM EDTA in Ca-Mg free Hank's balanced salt solution); at a 1:4 to 1:5 split.
a. All procedures are performed aseptically in a Class II biological safety cabinet using standard BL-2 containment procedures. At approximately monthly intervals, fresh cells are thawed from liquid nitrogen storage in order to prevent genetic drift in stock cell lines.
After cell passage, count cells with a hemacytometer;
a. Adjust concentration to approximately 1,000 cells per 100 μL;
b. Pipette 100 μL cell suspension per well of a standard 96-well microtiter plate;
c. Preincubate 24 hours to allow cells to attach;
d. Add test compound dispersed in phosphate buffered saline (PBS), or in DMSO for the comparative compound, retinoic acid, to achieve final concentration levels ranging from 0 to 100 μM;
e. Adjust volume to 200 μL/well by adding DMEM/F12; and
f. Incubate 72 hours under standard culture conditions and determine end points.
Remove media and add 100 μL/well of cold (4° C.) 10% (w/v) trichloroacetic acid (TCA) in water;
a. After 1 hour at 4° C., remove TCA and rinse cells 5 times with tap water;
c. Add 50 μL/well of 0.4% (w/v) sulforhodamine B (SRB) in 1% (v/v) acetic acid in water;
d. After 30 minutes at room temperature, rinse cells 4 times with 1% (v/v) acetic acid in water to remove residual stain;
f. Dissolve stain by adding 100 μL/well of unbuffered Tris base, pH 10.5;
g. Read absorbance at 562 nm using a standard 96-well microtiter plate reader. Absorbance readings are linear with dye concentrations below 1.8 absorbance units. To reduce absorbance, decrease wavelength at which measurements are taken.
single point reading; the higher the absorbance, the higher the cell number;
a. background-no cell and no test compound present in culture medium;
b. control-no test compound present in culture medium;
c. initial control cell number (ICCN)-no test compound present in culture medium, end point determined at the time of treatment;
d. final control cell number (FCCN)-no test compound present in culture medium, end point determined at 72 hours after treatment;
e. final cell number (FCN)-test compound present in culture medium, end point determined at 72 hours after treatment;
ICCN=A(control, zero hour)-A(background) […]

For data set [6] the following is noted: R. Andreesen, Prog. Biochem. Pharmacol., 22, 118-131; cited from earlier work.
[7] abbreviates: Mus musculus, RAW264.7, read-out: % Inhibition of respiratory burst.
The mark [8] stands for this setting: RAW264.7, PMA-stimulated mouse macrophages, 1 μM, read-out: % Inhibition of respiratory burst.
[9] abbreviates: RAW264.7, PMA-stimulated mouse macrophages, 3 μM, read-out: % Inhibition of respiratory burst.
Setting [10] is: RAW264.7, PMA-stimulated mouse macrophages, 10 μM, read-out: % Inhibition of respiratory burst.
[11] abbreviates: RAW264.7, PMA-stimulated mouse macrophages, 30 μM, read-out: % Inhibition of respiratory burst.

We go through four compounds from US5827836A, “Retinoid glycerol phospholipid conjugates” (Clarion Pharmaceuticals Inc., priority 1996, dated 1998).

Structures are written as SMILES. Like-named read-outs stand apart in the source and are kept apart here.

Take `CC1=C(/C=C/C(C)=C/C=C/C(C)=C/C(=O)O)C(C)(C)CCC1` [Retinoic Acid, retinoic acid, reference compound]: in data set [1] (setting [7]), the inhibition (in general, the relative decrease from the control value, in per cent) at 1 µM was 2%; the inhibition at 3 µM was determined as 6%; the inhibition at 10 µM is 3%; the inhibition at 30 µM amounted to 6%. Also, the “liposome formation (in words)” value in data set [2] is listed as “unlike retinoic acid, the subject compounds are capable of forming liposomes”. For the same compound, in data set [3] (HL-60, 10 μM, 72 hours, read-out: % Viability), the viability (in general, a read-out of living cells in per cent, often relative to untreated cells) at 10 µM was 87%. Moreover, the viability at 30 µM in data set [3] (HL-60, 30 μM, 72 hours, read-out: % Viability) was determined as 70%. The viability at 100 µM in data set [3] (HL-60, 100 μM, 72 hours, read-out: % Viability) is 0%.

As to `CCCCCCCCCCCCCCCCCCOCC(COC(=O)/C=C(C)/C=C/C=C(C)/C=C/C1=C(C)CCCC1(C)C)OP(=O)([O-])OCC[N+](C)(C)C` (stereo not drawn) [CPR 2004, 1-O-n-Octadecyl-3-(all-trans-retinoyl)-glycero-2-phosphocholine], the “anti-tumor or anti-cancer activity (in words)” value in data set [4] is given as “marked anti-tumor or anti-cancer activity”. Besides, in data set [1], the “reduction of macrophage activation (in words)” value is given as “markedly reduce macrophage activation”. Further, in data set [1] (Mus musculus, RAW264.7), the minimal effective concentration was above 3 µM. The inhibition at 1 µM in data set [1] (setting [8]) stood at 14%. In addition, the inhibition at 3 µM in data set [1] (setting [9]) is 55%. Besides, in data set [1] (setting [10]), the inhibition at 10 µM turned out to be 93%. For the same compound, in data set [1] (setting [11]), the inhibition at 30 µM came to 99%. Also, the “cell viability (in words)” value in data set [3] is recorded as “relatively high cell viability”. Moreover, in data set [3] (HL-60, 72 h), the viability at 10 µM is 92%, the viability at 30 µM came to 94% and the viability at 100 µM was 59%. For the same compound, in data set [5], the minimal effective concentration is above 10 µM and the “inhibition of keratinocyte proliferation (in words)” value is recorded as “markedly inhibit proliferation of these cells in vitro”.

Consider `CCCCCCCCCCCCCCCCCCOCC(COP(=O)([O-])OCC[N+](C)(C)C)OC(=O)/C=C(C)/C=C/C=C(C)/C=C/C1=C(C)CCCC1(C)C` (stereo not drawn) [CPR 2003, 1-O-n-Octadecyl-2-(all-trans-retinoyl)-glycero-3-phosphocholine], for which the “anti-tumor or anti-cancer activity (in words)” value in data set [4] is listed as “marked anti-tumor or anti-cancer activity”. Further, the “reduction of macrophage activation (in words)” value in data set [1] is given as “markedly reduce macrophage activation”. Moreover, in data set [1] (Mus musculus, RAW264.7), the minimal effective concentration was above 3 µM. Moreover, the inhibition at 1 µM in data set [1] (setting [8]) worked out at 19%. Moreover, the inhibition at 3 µM in data set [1] (setting [9]) worked out at 40%. Also, in data set [1] (setting [10]), the inhibition at 10 µM is 81%. The inhibition at 30 µM in data set [1] (setting [11]) is 99%. For the same compound, the “cell viability (in words)” value in data set [3] is reported as “relatively high cell viability”. In data set [3] (HL-60, 72 h), this compound gave a viability at 10 µM of 97%, a viability at 30 µM of 93% and a viability at 100 µM of 97%. In addition, in data set [5], the minimal effective concentration is above 1 µM and the “inhibition of keratinocyte proliferation (in words)” value is “markedly inhibit proliferation of these cells in vitro”.

As for `CCCCCCCCCCCCCCCCCCOC[C@H](COP(=O)([O-])OCC[N+](C)(C)C)OC` [ET 18-OCH3, 1-O-octadecyl-2-O-methyl-sn-glycero-3-phosphocholine], in data set [6], the “anti-tumor activity (in words)” value was “markedly potent anti-tumor activity”.
